Measurements reported in ChEMBL document CHEMBL3596108 (Bioorg Med Chem, 2015).

Columns and labels:
[1] = Tmax in nude mouse at 30 mg/kg, ip administered as single dose; format: ADME, organism-based; details: in vivo
[2] = Cmax in nude mouse at 30 mg/kg, ip administered as single dose; format: ADME, organism-based; parameters: dose 30 mg/kg, route intraperitoneal; details: in vivo
[3] = AUC (0 to t) in nude mouse at 30 mg/kg, ip administered as single dose; format: ADME, organism-based; details: in vivo
[4] = Passive permeability of the compound by PAMPA method; format: physicochemical; details: read-out: permeability
[5] = Half life in nude mouse at 30 mg/kg, ip administered as single dose; format: ADME, organism-based; details: in vivo

SMILES: Cl.NC1CCc2c(Br)ccc(-c3ccccc3)c2CC1=O (stereo not given)
- Tmax [1]: 30 min
- Cmax [2]: 115 ng/mL
- AUC(0-t) [3]: 190 ng·h/mL
- Papp [4]: 3.03 ×10⁻⁶ cm/s
- half-life [5]: 35 min
